Experiments:
Format in all cases: in vivo
Pythium ultimum = assay: Cotton varieties greenhouse trial, metalaxyl-resistant Pythium ultimum (Example 5)
From the text: Two different varieties of cotton seedlings (Variety A, and Variety B) that were infected with Pythium ultimum were exposed to various rates of metalaxyl, saponins, or metalaxyl+Saponin, and then allowed to grow in a greenhouse to determine whether the effects observed in the field could be reproduced in a greenhouse setting. This particular strain of Pythium ultimum was shown previously to have a mid-degree of resistance to seed treatments containing metalaxyl and/or L-metalaxyl. […] The stand counts from Variety B show a similar trend with the 1 GA/100 Kg rate of metalaxyl (see FIG. 5B).

Pythium [1] = assay: Corn hybrids greenhouse trial, Pythium-infected seeds, seed treatment (Example 4)
From the text: Concentrations and compositions of triadimenol, metalaxyl, and saponin are the same as given in Example 1. The data of TABLE 4 are shown graphically in FIGS. 4A and 4B. As shown by TABLE 4 and FIGS. 4A and 4B, pre-treatment of both varieties of corn seeds with 1 GA/100 Kg metalaxyl and 0.6 GA/100 Kg yielded counts similar to those achieved from pre-treatment of seeds with either 2 GA/100 Kg metalaxyl (the industry standard dose for corn) or 7.5 GA/100 Kg metalaxyl.

Pythium [2] = assay: Cucumber field trial, Pythium-infected seeds, seed treatment, control or Pythium-inoculated soil (Example 3); parameters: Density: unit not given here
From the text: The seeds were planted in a field, either in soil that had been inoculated with Pythium (Soil Inoc. with Pythium), or in soil that had not been inoculated with Pythium (Ctrl.), then allowed to grow. Concentrations and compositions of triadimenol, metalaxyl, and saponin are the same as given in Example 1. For cucumber, the industry standard dosage of metalaxyl is 15.5 grams of active ingredient per 100 kilograms of seed (15.5 GA/100 Kg). […] The data of TABLE 3 are shown graphically in FIG. 3. The relative densities for the data of TABLE 3 and FIG. 3 were calculated with reference to the 31 GA/100 Kg metalaxyl category. As shown by TABLE 3 and FIG. 3, inoculation of the soil with Pythium was correlated with a general decrease in cucumber seedling count, density, and relative density (compare Ctrl. versus Inoc.).

Pythium [3] = assay: Corn field trial, Pythium-infected seeds, seed treatment, soil not inoculated (Example 1); parameters: Density: unit not given here; conditions: for Vigor: subjective score, lower more favorable
From the text: Unlike other experiments disclosed herein, the soil for the experiment of EXAMPLE 1 was not inoculated with Pythium. Uninfected untreated, and Pythium-infected untreated seeds served as controls. Triadimenol, 15% w/v, is a systemic broad-spectrum fungicide used for cereal seed treatment, but has no activity against Pythium spp. Metalaxyl, 28.35% w/v, provides systemic protection for the seed, roots, and emerging plants against Pythium, systemic downy mildew, and Phytophthora. For corn, the industry standard dosage of metalaxyl is 2 grams of active ingredient per 100 kilograms of seed (2 GA/100 Kg). Saponin, 49.65% v/v extract of Chenopodium quinoa saponins, contained approximately equimolar amounts of triterpene bidesmosidic glycosides of oleanolic acid, hederagenin, and phytolaccagenic acid. […] In TABLE 1, “Vigor” represents a subjective measure of plant health and is based on uniformity, consistent plant mass, and consistent plant spacing, with lower scores being more favorable than higher scores. The data of TABLE 1 are shown graphically in FIGS. 1A and 1B. As shown by TABLE 1 and FIGS. 1A and 1B, the count and the density increased—over time—for all treatment conditions. The relative density, however, decreased over time for the […] and metalaxyl (2 GA/100 kg) categories. The relative density remained the same for the untreated/uninfected category because it provided the reference point (i.e., the relative densities were calculated with reference to the untreated/uninfected category).

[4] = Metalaxyl 7.5 GA/100 Kg, Day 14
[5] = Metalaxyl 15.5 GA/100 Kg, 18 DAA, Ctrl. soil
[6] = Metalaxyl 15.5 GA/100 Kg, 18 DAA, Soil Inoc. with Pythium
[7] = Metalaxyl 15.5 GA/100 Kg, 33 DAA, Ctrl. soil
[8] = Metalaxyl 31 GA/100 Kg, 18 DAA, Ctrl. soil
[9] = Metalaxyl 31 GA/100 Kg, 18 DAA, Soil Inoc. with Pythium
[10] = Metalaxyl 31 GA/100 Kg, 33 DAA, Ctrl. soil
[11] = Metalaxyl 31 GA/100 Kg, 33 DAA, Soil Inoc. with Pythium
[12] = Metalaxyl 7.5 GA/100 Kg, 30 DAA
[13] = Metalaxyl 7.5 GA/100 Kg, 46 DAA

COCC(=O)N(c1c(C)cccc1C)C(C)C(=O)OC (centres unmarked) [Metalaxyl]
Count, Variety A (Pythium ultimum; Metalaxyl 1 GA/100 Kg, Day 6): 76 | Count, Variety B (Pythium ultimum; Metalaxyl 1 GA/100 Kg, Day 6): 77 | Count, Variety A (Pythium ultimum; Metalaxyl 1 GA/100 Kg, Day 14): 57 | Count, Variety B (Pythium ultimum; Metalaxyl 1 GA/100 Kg, Day 14): 26 | Count, Variety A (Pythium ultimum; Metalaxyl 1 GA/100 Kg, Day 19): 24 | Count, Variety B (Pythium ultimum; Metalaxyl 1 GA/100 Kg, Day 19): 5 | Count, Variety A (Pythium ultimum; Metalaxyl 5 GA/100 Kg, Day 6): 70 | Count, Variety B (Pythium ultimum; Metalaxyl 5 GA/100 Kg, Day 6): 94 | Count, Variety A (Pythium ultimum; Metalaxyl 5 GA/100 Kg, Day 14): 73 | Count, Variety B (Pythium ultimum; Metalaxyl 5 GA/100 Kg, Day 14): 84 | Count, Variety A (Pythium ultimum; Metalaxyl 5 GA/100 Kg, Day 19): 49 | Count, Variety B (Pythium ultimum; Metalaxyl 5 GA/100 Kg, Day 19): 45 | Count, Variety A (Pythium ultimum; Metalaxyl 10 GA/100 Kg, Day 6): 73.75 | Count, Variety B (Pythium ultimum; Metalaxyl 10 GA/100 Kg, Day 6): 83 | Count, Variety A (Pythium ultimum; Metalaxyl 10 GA/100 Kg, Day 14): 77.5 | Count, Variety B (Pythium ultimum; Metalaxyl 10 GA/100 Kg, Day 14): 85 | Count, Variety A (Pythium ultimum; Metalaxyl 10 GA/100 Kg, Day 19): 72.5 | Count, Variety B (Pythium ultimum; Metalaxyl 10 GA/100 Kg, Day 19): 68 | Count, Variety A (Pythium ultimum; Metalaxyl 15 GA/100 Kg, Day 6): 60 | Count, Variety B (Pythium ultimum; Metalaxyl 15 GA/100 Kg, Day 6): 83 | Count, Variety A (Pythium ultimum; Metalaxyl 15 GA/100 Kg, Day 14): 81.25 | Count, Variety B (Pythium ultimum; Metalaxyl 15 GA/100 Kg, Day 14): 80 | Count, Variety A (Pythium ultimum; Metalaxyl 15 GA/100 Kg, Day 19): 36.25 | Count, Variety B (Pythium ultimum; Metalaxyl 15 GA/100 Kg, Day 19): 62 | Count, Hybrid A (Pythium [1]; Metalaxyl 2 GA/100 Kg, Day 2): 92 | Count, Hybrid B (Pythium [1]; Metalaxyl 2 GA/100 Kg, Day 2): 74 | Count, Hybrid A (Pythium [1]; Metalaxyl 2 GA/100 Kg, Day 7): 98 | Count, Hybrid B (Pythium [1]; Metalaxyl 2 GA/100 Kg, Day 7): 88 | Count, Hybrid A (Pythium [1]; Metalaxyl 2 GA/100 Kg, Day 14): 98 | Count, Hybrid B (Pythium [1]; Metalaxyl 2 GA/100 Kg, Day 14): 88 | Count, Hybrid A (Pythium [1]; Metalaxyl 7.5 GA/100 Kg, Day 2): 94 | Count, Hybrid B (Pythium [1]; Metalaxyl 7.5 GA/100 Kg, Day 2): 64 | Count, Hybrid A (Pythium [1]; Metalaxyl 7.5 GA/100 Kg, Day 7): 96 | Count, Hybrid B (Pythium [1]; Metalaxyl 7.5 GA/100 Kg, Day 7): 94 | Count, Hybrid A (Pythium [1]; [4]): 96 | Count, Hybrid B (Pythium [1]; [4]): 98 | Count (Pythium [2]; [5]): 42.5 | Density (Pythium [2]; [5]): 85 | Relative Density (Pythium [2]; [5]): 121.4 | Count (Pythium [2]; [6]): 26 | Density (Pythium [2]; [6]): 52 | Relative Density (Pythium [2]; [6]): 89.7 | Count (Pythium [2]; [7]): 41.8 | Density (Pythium [2]; [7]): 83.5 | Relative Density (Pythium [2]; [7]): 122.8 | Relative Density (Pythium [2]; Metalaxyl 31 GA/100 Kg (reference), 18 DAA, Ctrl. soil): 100 | Relative Density (Pythium [2]; Metalaxyl 31 GA/100 Kg (reference), 18 DAA, Soil Inoc. with Pythium): 100 | Relative Density (Pythium [2]; Metalaxyl 31 GA/100 Kg (reference), 33 DAA, Ctrl. soil): 100 | Count (Pythium [2]; [8]): 35 | Density (Pythium [2]; [8]): 70 | Count (Pythium [2]; [9]): 29 | Density (Pythium [2]; [9]): 58 | Count (Pythium [2]; [10]): 34 | Density (Pythium [2]; [10]): 68 | Count (Pythium [2]; [11]): 8.3 | Density (Pythium [2]; [11]): 16.5 | Relative Density (Pythium [2]; [11]): 31.4 | Count (Pythium [3]; Metalaxyl 2 GA/100 Kg, 30 DAA): 37 | Density (Pythium [3]; Metalaxyl 2 GA/100 Kg, 30 DAA): 46.6 | Relative Density (Pythium [3]; Metalaxyl 2 GA/100 Kg, 30 DAA): 124.2 | Count (Pythium [3]; Metalaxyl 2 GA/100 Kg, 46 DAA): 73 | Density (Pythium [3]; Metalaxyl 2 GA/100 Kg, 46 DAA): 90.9 | Relative Density (Pythium [3]; Metalaxyl 2 GA/100 Kg, 46 DAA): 117.8 | Vigor (Pythium [3]; Metalaxyl 2 GA/100 Kg, 46 DAA): 3.75 | Count (Pythium [3]; [12]): 34 | Density (Pythium [3]; [12]): 42.8 | Relative Density (Pythium [3]; [12]): 114.2 | Count (Pythium [3]; [13]): 73 | Density (Pythium [3]; [13]): 91.6 | Relative Density (Pythium [3]; [13]): 118.6 | Vigor (Pythium [3]; [13]): 3.5
